Results taken from patent US10414765B2, “Substituted perhydropyrrolo[3,4-c]pyrrole derivatives and the use of same” (BAYER PHARMA AKTIENGESELLSCHAFT, priority 2015, dated 2019).

Experiments:
human TASK-3 = human TASK-3 (Homo sapiens (Human), UniProt Q9NPC2); assay: Inhibition of recombinant TASK-3 in stably transfected CHO cells (voltage-sensitive dye, 40 mM KCl depolarization); assay type: cell-based; conditions: 40 mM potassium chloride
Experimental: (§1) B-2. Inhibition of Recombinant TASK-1 and TASK-3 In Vitro
(§2) The investigations on the inhibition of the recombinant TASK-1 and TASK-3 channels were conducted using stably transfected CHO cells. The compounds according to the invention were tested in this case by application of 40 mM potassium chloride in the presence of a voltage-sensitive dye according to the methods described in detail in the following references [Whiteaker et al., Validation of FLIPR membrane potential dye for high-throughput screening of potassium channel modulators, J. Biomol. Screen. 6 (5), 305-312 (2001); Molecular Devices FLIPR Application Note: Measuring membrane potential using the FLIPR® membrane potential assay kit on Fluorometric Imaging Plate Reader (FLIPR®) systems, http://www.moleculardevices.com/reagents-supplies/assay-kits/ion-channels/flipr-membrane-potential-assay-kits]. The activity of the test substances was determined as their ability to inhibit a depolarization induced in the recombinant cells by 40 mM potassium chloride. The concentration which can block half of this depolarization is referred to as IC50.

human TASK-1 = human TASK-1 (Homo sapiens (Human), UniProt O14649); assay: Inhibition of recombinant TASK-1 in stably transfected CHO cells (voltage-sensitive dye, 40 mM KCl depolarization); assay type: cell-based; conditions: 40 mM potassium chloride
Experimental: as §1, §2

human TASK-3, sequence (Q9NPC2 whole entry): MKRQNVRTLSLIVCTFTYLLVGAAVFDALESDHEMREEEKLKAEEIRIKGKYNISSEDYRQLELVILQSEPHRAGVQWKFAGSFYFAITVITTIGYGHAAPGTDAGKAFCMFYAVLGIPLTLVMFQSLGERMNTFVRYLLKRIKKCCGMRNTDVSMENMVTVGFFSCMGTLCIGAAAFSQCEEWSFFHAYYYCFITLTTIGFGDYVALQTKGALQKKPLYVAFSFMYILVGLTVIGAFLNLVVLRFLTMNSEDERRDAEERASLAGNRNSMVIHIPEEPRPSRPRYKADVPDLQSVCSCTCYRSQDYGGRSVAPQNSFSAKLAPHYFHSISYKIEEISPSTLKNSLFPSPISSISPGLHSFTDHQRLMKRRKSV
human TASK-1, sequence (O14649 whole entry): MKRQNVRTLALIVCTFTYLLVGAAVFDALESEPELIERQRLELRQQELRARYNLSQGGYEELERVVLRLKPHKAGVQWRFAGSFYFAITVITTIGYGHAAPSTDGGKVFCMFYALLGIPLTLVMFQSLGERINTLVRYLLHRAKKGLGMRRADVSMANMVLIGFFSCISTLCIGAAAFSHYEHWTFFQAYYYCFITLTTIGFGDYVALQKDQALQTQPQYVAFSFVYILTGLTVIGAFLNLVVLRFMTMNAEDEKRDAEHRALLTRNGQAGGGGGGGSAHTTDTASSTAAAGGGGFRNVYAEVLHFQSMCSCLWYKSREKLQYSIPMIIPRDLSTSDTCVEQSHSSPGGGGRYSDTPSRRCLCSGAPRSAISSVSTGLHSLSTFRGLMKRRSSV

Row | IC50 (human TASK-3) [µM] | IC50 (human TASK-1) [µM] | SMILES
1 | 1.3 | 0.683 | O=C(c1ccccc1F)N1CC2CN(Cc3c(-c4ccc(Br)cc4)nc4ccccn34)CC2C1 (stereo not drawn) [Example 6]
2 | 4.3 | 0.787 | O=C(c1cc(F)ccc1Cl)N1CC2CN(Cc3c(-c4ccc(Br)cc4)nc4ccccn34)CC2C1 (stereo not drawn) [Example 7]
3 | 2.9 | 1 | O=C(c1cc(F)ccc1Cl)N1CC2CN(Cc3c(-c4ccc(Cl)cc4)nc4ccccn34)CC2C1 (stereo not drawn) [Example 15]
4 | 0.23 | 1.25 | Cc1ccc(F)cc1C(=O)N1CC2CN(Cc3c(-c4ccc(Cl)cc4)nc4ccccn34)CC2C1 (stereo not drawn) [Example 21]
5 | 0.1 | 0.728 | O=C(c1cccc(C(F)(F)F)c1)N1CC2CN(Cc3c(-c4ccc(Cl)cc4)nc4ccccn34)CC2C1 (stereo not drawn) [Example 23]
6 | 0.8 | 0.33 | COc1cccc(C(=O)N2CC3CN(Cc4c(-c5ccc(Br)cc5)nc5ccccn45)CC3C2)n1 (stereo not drawn) [Example 24]
7 | 0.17 | 0.17 | COc1cccc(C(=O)N2CC3CN(Cc4c(-c5ccc(C(C)C)cc5)nc5ccccn45)CC3C2)c1 (stereo not drawn) [Example 27]
8 | 0.19 | 0.3 | CC(C)c1ccc(-c2nc3ccccn3c2CN2CC3CN(C(=O)C4CCCC4)CC3C2)cc1 (stereo not drawn) [Example 28]

Continued, compound first:

Row | SMILES | IC50 (human TASK-3) [µM] | IC50 (human TASK-1) [µM]
9 | CC(C)(C)OC(=O)N1CC2CN(Cc3c(-c4ccc(Cl)cc4)nc4ccccn34)CC2C1 (stereo not drawn) [Example 1, tert-butyl 5-{[2-(4-chlorophenyl)imidazo [1,2-a]pyridin-3-yl]methyl}hexahydropyrrolo[3,4-c]pyrrole-2(1H)-carboxylate] | 6.1 | 2.41
10 | CC(C)(C)OC(=O)N1CC2CN(Cc3c(-c4ccc(Br)cc4)nc4ccccn34)CC2C1 (stereo not drawn) [Example 2] | 5.4 | 1.73
11 | CC(C)c1ccc(-c2nc3ccccn3c2CN2CC3CN(C(=O)OC(C)(C)C)CC3C2)cc1 (stereo not drawn) [Example 3] | 7.4 | 2.5
12 | O=C(C1CCCC1)N1CC2CN(Cc3c(-c4ccc(Br)cc4)nc4ccccn34)CC2C1 (stereo not drawn) [Example 5, [5-{[2-(4-Bromophenyl)imidazo[1,2-a]pyridin-3-yl]methyl}hexahydropyrrolo[3,4-c]pyrrol-2(1H)-yl](cyclopentyl)methanone] | 1.6 | 1.13
13 | O=C(C1CCCCC1)N1CC2CN(Cc3c(-c4ccc(Br)cc4)nc4ccccn34)CC2C1 (stereo not drawn) [Example 8] | 0.81 | 1.36
14 | O=C(C1CCC1)N1CC2CN(Cc3c(-c4ccc(Br)cc4)nc4ccccn34)CC2C1 (stereo not drawn) [Example 9] | 0.66 | 0.749
15 | COc1ccccc1C(=O)N1CC2CN(Cc3c(-c4ccc(Br)cc4)nc4ccccn34)CC2C1 (stereo not drawn) [Example 11] | 2.5 | 1.21
16 | COc1ccc(F)cc1C(=O)N1CC2CN(Cc3c(-c4ccc(Br)cc4)nc4ccccn34)CC2C1 (stereo not drawn) [Example 12] | 0.96 | 1.2
17 | Cc1ccccc1C(=O)N1CC2CN(Cc3c(-c4ccc(Br)cc4)nc4ccccn34)CC2C1 (stereo not drawn) [Example 13] | 1.3 | 0.712
18 | O=C(c1ccccc1F)N1CC2CN(Cc3c(-c4ccc(Cl)cc4)nc4ccccn34)CC2C1 (stereo not drawn) [Example 14] | 3.4 | 1.06
19 | O=C(C1CCCCC1)N1CC2CN(Cc3c(-c4ccc(Cl)cc4)nc4ccccn34)CC2C1 (stereo not drawn) [Example 16] | 1.1 | 1.94
20 | COc1ccccc1C(=O)N1CC2CN(Cc3c(-c4ccc(Cl)cc4)nc4ccccn34)CC2C1 (stereo not drawn) [Example 18] | 4.9 | 1.68
21 | COc1ccc(F)cc1C(=O)N1CC2CN(Cc3c(-c4ccc(Cl)cc4)nc4ccccn34)CC2C1 (stereo not drawn) [Example 19] | 1.5 | 1.25
22 | Cc1ccccc1C(=O)N1CC2CN(Cc3c(-c4ccc(Cl)cc4)nc4ccccn34)CC2C1 (stereo not drawn) [Example 20] | 2.5 | 1.02
23 | O=C(c1cccc(OC(F)(F)F)c1)N1CC2CN(Cc3c(-c4ccc(Cl)cc4)nc4ccccn34)CC2C1 (stereo not drawn) [Example 22] | 0.32 | 1.46
24 | CC(C)c1ccc(-c2nc3ccccn3c2CN2CC3CN(C(=O)c4ccccc4F)CC3C2)cc1 (stereo not drawn) [Example 26] | 0.31 | 0.22
